{"source": "ChEMBL document CHEMBL5729420", "about": "“Substituted imidazo[1,2-c]pyrimidines as PRC2 inhibitors” (2022)", "target": "Histone-binding protein RBBP4/Polycomb protein EED/Polycomb protein SUZ12/Zinc finger protein AEBP2 (Homo sapiens, UniProt O75530+Q09028+Q15022+Q6ZN18)", "sequence (O75530 whole entry)": "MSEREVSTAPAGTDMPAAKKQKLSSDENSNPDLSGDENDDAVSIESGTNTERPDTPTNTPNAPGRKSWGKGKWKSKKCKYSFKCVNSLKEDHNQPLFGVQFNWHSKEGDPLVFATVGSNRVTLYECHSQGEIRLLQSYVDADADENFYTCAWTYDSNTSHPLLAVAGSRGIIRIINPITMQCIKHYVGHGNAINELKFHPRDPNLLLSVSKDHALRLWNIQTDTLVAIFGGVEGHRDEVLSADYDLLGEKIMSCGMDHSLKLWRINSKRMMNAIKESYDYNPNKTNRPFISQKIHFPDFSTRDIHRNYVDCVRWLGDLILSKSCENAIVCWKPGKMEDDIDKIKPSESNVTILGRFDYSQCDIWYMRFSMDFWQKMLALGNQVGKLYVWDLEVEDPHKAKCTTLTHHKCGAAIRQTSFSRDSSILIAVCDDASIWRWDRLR", "sequence (Q15022 whole entry)": "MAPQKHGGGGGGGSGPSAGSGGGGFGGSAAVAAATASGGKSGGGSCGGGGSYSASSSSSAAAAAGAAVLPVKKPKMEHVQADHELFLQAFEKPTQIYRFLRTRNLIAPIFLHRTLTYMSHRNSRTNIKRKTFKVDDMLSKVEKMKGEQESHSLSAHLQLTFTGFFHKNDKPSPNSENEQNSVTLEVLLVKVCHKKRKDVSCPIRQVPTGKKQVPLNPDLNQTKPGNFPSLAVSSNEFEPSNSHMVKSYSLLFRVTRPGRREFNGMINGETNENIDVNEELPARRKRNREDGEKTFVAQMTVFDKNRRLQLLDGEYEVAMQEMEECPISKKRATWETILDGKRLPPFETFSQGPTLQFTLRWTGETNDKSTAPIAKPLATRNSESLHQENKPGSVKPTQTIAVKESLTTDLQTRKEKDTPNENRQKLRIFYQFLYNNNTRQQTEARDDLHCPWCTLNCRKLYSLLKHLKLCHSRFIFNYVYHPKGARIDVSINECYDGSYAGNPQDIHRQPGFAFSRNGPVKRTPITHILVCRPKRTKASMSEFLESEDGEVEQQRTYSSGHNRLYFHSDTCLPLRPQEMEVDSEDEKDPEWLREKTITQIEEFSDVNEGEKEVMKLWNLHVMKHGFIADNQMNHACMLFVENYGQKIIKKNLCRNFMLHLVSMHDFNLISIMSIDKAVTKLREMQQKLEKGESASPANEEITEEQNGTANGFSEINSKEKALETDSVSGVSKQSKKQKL", "sequence (Q6ZN18 whole entry)": "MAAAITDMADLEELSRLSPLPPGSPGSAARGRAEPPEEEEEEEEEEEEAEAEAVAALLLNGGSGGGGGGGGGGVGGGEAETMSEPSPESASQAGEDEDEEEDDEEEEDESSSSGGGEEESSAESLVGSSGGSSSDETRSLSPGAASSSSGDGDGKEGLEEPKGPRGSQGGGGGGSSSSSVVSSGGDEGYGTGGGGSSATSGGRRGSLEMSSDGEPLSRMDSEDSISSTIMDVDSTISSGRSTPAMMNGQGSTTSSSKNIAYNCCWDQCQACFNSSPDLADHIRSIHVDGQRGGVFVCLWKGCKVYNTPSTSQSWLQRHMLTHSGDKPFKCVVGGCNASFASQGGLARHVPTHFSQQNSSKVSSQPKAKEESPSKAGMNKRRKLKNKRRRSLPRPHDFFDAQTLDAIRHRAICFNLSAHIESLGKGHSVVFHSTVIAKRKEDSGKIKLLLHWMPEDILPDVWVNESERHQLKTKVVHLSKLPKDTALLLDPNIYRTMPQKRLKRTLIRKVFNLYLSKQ", "sequence (Q09028 whole entry)": "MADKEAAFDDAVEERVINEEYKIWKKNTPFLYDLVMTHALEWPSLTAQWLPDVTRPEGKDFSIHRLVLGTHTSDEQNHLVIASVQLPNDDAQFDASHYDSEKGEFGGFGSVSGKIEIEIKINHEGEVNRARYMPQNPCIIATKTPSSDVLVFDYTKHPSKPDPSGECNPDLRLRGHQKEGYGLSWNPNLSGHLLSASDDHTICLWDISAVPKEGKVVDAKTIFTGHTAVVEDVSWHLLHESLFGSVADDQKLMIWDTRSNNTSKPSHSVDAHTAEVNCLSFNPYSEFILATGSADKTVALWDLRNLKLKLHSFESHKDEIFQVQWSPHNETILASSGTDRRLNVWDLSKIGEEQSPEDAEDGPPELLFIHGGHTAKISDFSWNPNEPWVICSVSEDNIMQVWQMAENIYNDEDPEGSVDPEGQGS", "test": "Enzymatic Activity Assay: An aliquot of each serial dilution of test compound was added to deep 384 well plate using Acoustic Technology instrument (Echo 550, LabCyte) containing reaction buffer (50 mM Tris-HCl (pH 8), 0.01% Brij35, 1 mM EDTA, 1 mM DTT, 1 mM PMSF and 1% DMSO), 10 nM purified PRC2 complex and 0.05 mg/ml core histone H3 in a 5 μl volume. The reaction was mixed gently and then pre-incubated for 20 min at 30° C. The enzymatic reaction was initiated by adding 1 uM S-Adenosyl-L-[methyl-3H]methionine and incubated for 1 hr at 30° C. After 1 hr, the reaction product was detected using a filter binding method and the amount of tritiated H3 core histone was quantitated using a scintillation counter.", "type": "protein-complex assay", "data": [{"smiles": "Cc1cc(-c2cnc(NCc3c(F)ccc4c3CCCO4)n3cc(C#N)nc23)n(C)n1", "values": [{"measurement": "IC50", "result": "> 500", "unit": "nM"}]}]}
